Measurements from patent publication US12552790B2, “Positive modulators of the muscarinic acetylcholine receptor M4” (Vanderbilt University, priority 2023, dated 2026).

Target: T1, Human M4 (Homo sapiens, UniProt P08173)
T1 construct: expressed in transfected cells
T1 sequence (P08173 1-479): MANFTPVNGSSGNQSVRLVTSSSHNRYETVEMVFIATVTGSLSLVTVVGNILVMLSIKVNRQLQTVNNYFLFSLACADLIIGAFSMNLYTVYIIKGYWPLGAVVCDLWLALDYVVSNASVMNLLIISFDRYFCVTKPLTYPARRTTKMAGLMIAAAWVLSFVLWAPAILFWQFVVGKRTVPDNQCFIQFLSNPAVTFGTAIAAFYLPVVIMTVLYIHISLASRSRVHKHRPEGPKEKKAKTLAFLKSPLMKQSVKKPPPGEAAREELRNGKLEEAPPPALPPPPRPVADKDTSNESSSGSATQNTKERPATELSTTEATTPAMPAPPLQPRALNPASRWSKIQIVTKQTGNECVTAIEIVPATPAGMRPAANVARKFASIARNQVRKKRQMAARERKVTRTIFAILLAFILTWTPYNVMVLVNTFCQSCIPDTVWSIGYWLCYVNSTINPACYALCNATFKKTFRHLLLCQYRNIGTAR
Experiment: M4 cell-based functional assay, calcium mobilization, potentiation of ACh EC20
Details: for Emax at 30 µM: % ACh maximum at 30 μM; for EC50: CHO-K1 hM4-Gqi5 cells, calcium flux, ACh EC20
How it was run: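 CHO-K1 cells stably co-expressing human M4 and chimeric Gqi5, loaded with Fluo-4-AM, read by calcium fluorescence (ex 480/em 530 nm). Compound (10-point 1:3 series) added ~140 s before an EC20 ACh challenge, then EC80 ACh. Response expressed as fold over basal, normalized to maximal ACh response.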

SMILES: [2H]C1([2H])Oc2ccc(OC3CCN(c4nc5nn(C)c(=O)n5cc4C)CC3)cc2OC1([2H])[2H] [Compound A6, 7-(4-((2,3-dihydrobenzo[b][1,4]dioxin-6-yl-2,2,3,3-d4)oxy)piperidin-1-yl)-2,6-dimethyl-[1,2,4]triazolo[4,3-a]pyrimidin-3(2H)-one]
- Emax at 30 µM: 90%
- EC50: 7 nM

SMILES: [2H]C1([2H])Oc2ccc(OC3CCN(c4nc5nn(C)c(=O)n5c(C)c4C)CC3)cc2OC1([2H])[2H] [Compound A10, 7-(4-((2,3-dihydrobenzo[b][1,4]dioxin-6-yl-2,2,3,3-d4)oxy)piperidin-1-yl)-2,5,6-trimethyl-[1,2,4]triazolo[4,3-a]pyrimidin-3(2H)-one]
- Emax at 30 µM: 96%
- EC50: 2 nM

SMILES: [2H]C1([2H])Oc2ccc(OC3CCN(c4nc5c(cc4C)C(=O)NC5)CC3)cc2OC1([2H])[2H] [Compound 3, 2-(4-((2,3-dihydrobenzo[b][1,4]dioxin-6-yl-2,2,3,3-d4)oxy)piperidin-1-yl)-3-methyl-6,7-dihydro-5H-pyrrolo[3,4-b]pyridin-5-one]
- Emax at 30 µM: 96%
- EC50: 2 nM
